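A five-concentration, 48-hour dose response in 96-well plates underlies each endpoint, interpolated linearly between surrounding concentrations. At the GI50, growth is halved. TGI denotes the concentration required for complete inhibition of growth.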
What was measured:
Assay in all cases: NCI tumour cell line growth inhibition, 48 h
SR leukemia = test system: SR leukemia
COLO 205 colon = test system: COLO 205 colon
LOX IMVI melanoma = test system: LOX IMVI melanoma
SNB-78 CNS = test system: SNB-78 CNS
MOLT-4 leukemia = test system: MOLT-4 leukemia
SN12C renal = test system: SN12C renal
UACC-257 melanoma = test system: UACC-257 melanoma
786-0 renal = test system: 786-0 renal
K-562 leukemia = test system: K-562 leukemia
M19-MEL melanoma = test system: M19-MEL melanoma
DMS 114 small cell lung = test system: DMS 114 small cell lung
A498 renal = test system: A498 renal
CAKI-1 renal = test system: CAKI-1 renal
XF 498 CNS = test system: XF 498 CNS
NCI-H460 lung = test system: NCI-H460 lung
UO-31 renal = test system: UO-31 renal
KM20L2 colon = test system: KM20L2 colon
SK-MEL-2 melanoma = test system: SK-MEL-2 melanoma
NCI-H522 lung = test system: NCI-H522 lung
HOP-18 NSCLC = test system: HOP-18 NSCLC
HCT-15 colon = test system: HCT-15 colon
HOP-62 NSCLC = test system: HOP-62 NSCLC
NCI-H23 lung = test system: NCI-H23 lung
DLD-1 colon = test system: DLD-1 colon
ACHN renal = test system: ACHN renal
U251 CNS = test system: U251 CNS
RXF 393 renal = test system: RXF 393 renal
SK-OV-3 ovarian = test system: SK-OV-3 ovarian
HL-60(TB) leukemia = test system: HL-60(TB) leukemia
UACC-62 melanoma = test system: UACC-62 melanoma
OVCAR-3 ovarian = test system: OVCAR-3 ovarian
HCT-116 colon = test system: HCT-116 colon
SF-268 CNS = test system: SF-268 CNS
OVCAR-8 ovarian = test system: OVCAR-8 ovarian
MALME-3M melanoma = test system: MALME-3M melanoma
SNB-75 CNS = test system: SNB-75 CNS
HT29 colon = test system: HT29 colon
OVCAR-5 ovarian = test system: OVCAR-5 ovarian
A549 NSCLC = test system: A549 NSCLC
IGROV1 ovarian = test system: IGROV1 ovarian
TK-10 renal = test system: TK-10 renal
SNB-19 CNS = test system: SNB-19 CNS
M14 melanoma = test system: M14 melanoma
KM12 colon = test system: KM12 colon
SW-620 colon = test system: SW-620 colon
NCI-H226 lung = test system: NCI-H226 lung
LXFL 529 NSCLC = test system: LXFL 529 NSCLC
DMS 273 small cell lung = test system: DMS 273 small cell lung
OVCAR-4 ovarian = test system: OVCAR-4 ovarian
SK-MEL-5 melanoma = test system: SK-MEL-5 melanoma
HOP-92 NSCLC = test system: HOP-92 NSCLC
CCRF-CEM leukemia = test system: CCRF-CEM leukemia
SF-539 CNS = test system: SF-539 CNS
SF-295 CNS = test system: SF-295 CNS
EKVX NSCLC = test system: EKVX NSCLC
RPMI-8226 leukemia = test system: RPMI-8226 leukemia
HCC-2998 colon = test system: HCC-2998 colon
SK-MEL-28 melanoma = test system: SK-MEL-28 melanoma
RXF-631 renal = test system: RXF-631 renal

COC[C@@H]1[C@H]2OC(C)(C)O[C@H]2C(=O)N1C(=O)c1ccc(OC)cc1 was tested. Which TGI (SR leukemia) did it give?
Its TGI is > 100 µM.

And the TGI (COLO 205 colon)?
The TGI was > 100 µM.

What about the TGI (LOX IMVI melanoma) of the same compound?
The TGI was > 100 µM.

And the TGI (SNB-78 CNS)?
Its TGI is > 100 µM.

What about the TGI (MOLT-4 leukemia) of the same compound?
Its TGI is > 100 µM.

What about the TGI (SN12C renal) of the same compound?
The TGI was > 100 µM.

And the TGI (UACC-257 melanoma)?
The TGI was > 100 µM.

And the TGI (786-0 renal)?
Its TGI is > 100 µM.

And the TGI (K-562 leukemia)?
The TGI was > 100 µM.

And the TGI (M19-MEL melanoma)?
The TGI was > 100 µM.

And the TGI (DMS 114 small cell lung)?
Its TGI is > 100 µM.

And the TGI (A498 renal)?
Its TGI is > 100 µM.

And the TGI (CAKI-1 renal)?
Its TGI is > 100 µM.

What about the TGI (XF 498 CNS) of the same compound?
Its TGI is > 100 µM.

What about the TGI (NCI-H460 lung) of the same compound?
Its TGI is > 100 µM.

And the TGI (UO-31 renal)?
The TGI was > 100 µM.

And the TGI (KM20L2 colon)?
Its TGI is > 100 µM.

What about the TGI (SK-MEL-2 melanoma) of the same compound?
Its TGI is > 100 µM.

What about the TGI (NCI-H522 lung) of the same compound?
The TGI was > 100 µM.

What about the TGI (HOP-18 NSCLC) of the same compound?
The TGI was > 100 µM.

And the TGI (HCT-15 colon)?
Its TGI is > 100 µM.

And the TGI (HOP-62 NSCLC)?
Its TGI is > 100 µM.

What about the TGI (NCI-H23 lung) of the same compound?
The TGI was > 100 µM.

What about the TGI (DLD-1 colon) of the same compound?
The TGI was > 100 µM.

And the TGI (ACHN renal)?
Its TGI is > 100 µM.

And the TGI (U251 CNS)?
Its TGI is > 100 µM.

What about the TGI (RXF 393 renal) of the same compound?
Its TGI is > 100 µM.

What about the TGI (SK-OV-3 ovarian) of the same compound?
Its TGI is > 100 µM.

What about the TGI (HL-60(TB) leukemia) of the same compound?
The TGI was > 100 µM.

And the TGI (UACC-62 melanoma)?
Its TGI is > 100 µM.

What about the TGI (OVCAR-3 ovarian) of the same compound?
The TGI was > 100 µM.

What about the TGI (HCT-116 colon) of the same compound?
Its TGI is > 100 µM.

What about the TGI (SF-268 CNS) of the same compound?
Its TGI is > 100 µM.

What about the TGI (OVCAR-8 ovarian) of the same compound?
The TGI was > 100 µM.

What about the TGI (MALME-3M melanoma) of the same compound?
The TGI was > 100 µM.

And the TGI (SNB-75 CNS)?
Its TGI is > 100 µM.

What about the TGI (HT29 colon) of the same compound?
Its TGI is > 100 µM.

And the TGI (OVCAR-5 ovarian)?
Its TGI is > 100 µM.

And the TGI (A549 NSCLC)?
Its TGI is > 100 µM.

What about the TGI (IGROV1 ovarian) of the same compound?
The TGI was > 100 µM.

What about the TGI (TK-10 renal) of the same compound?
The TGI was > 100 µM.

And the TGI (SNB-19 CNS)?
The TGI was > 100 µM.

And the TGI (M14 melanoma)?
The TGI was > 100 µM.

And the TGI (KM12 colon)?
The TGI was > 100 µM.

What about the TGI (SW-620 colon) of the same compound?
Its TGI is > 100 µM.

And the TGI (NCI-H226 lung)?
Its TGI is > 100 µM.

And the TGI (LXFL 529 NSCLC)?
Its TGI is > 100 µM.

And the TGI (DMS 273 small cell lung)?
The TGI was > 100 µM.

What about the TGI (OVCAR-4 ovarian) of the same compound?
The TGI was > 100 µM.

What about the TGI (SK-MEL-5 melanoma) of the same compound?
The TGI was > 100 µM.

What about the TGI (HOP-92 NSCLC) of the same compound?
Its TGI is > 100 µM.

And the TGI (CCRF-CEM leukemia)?
The TGI was > 100 µM.

And the TGI (SF-539 CNS)?
The TGI was > 100 µM.

What about the TGI (SF-295 CNS) of the same compound?
The TGI was > 100 µM.

And the TGI (EKVX NSCLC)?
The TGI was > 100 µM.

What about the TGI (RPMI-8226 leukemia) of the same compound?
The TGI was > 100 µM.

What about the TGI (HCC-2998 colon) of the same compound?
Its TGI is > 100 µM.

And the TGI (SK-MEL-28 melanoma)?
The TGI was > 100 µM.

Which results are given for Nc1ccccc1Nc1ccccc1C(=O)[O-].Nc1ccccc1Nc1ccccc1C(=O)[O-].[Ni+2]?
GI50 (SR leukemia): > 100 µM; TGI (SR leukemia): > 100 µM; TGI (COLO 205 colon): > 100 µM; GI50 (LOX IMVI melanoma): > 100 µM; TGI (LOX IMVI melanoma): > 100 µM; TGI (MOLT-4 leukemia): > 100 µM; TGI (SN12C renal): > 100 µM; TGI (UACC-257 melanoma): > 100 µM; TGI (786-0 renal): > 100 µM; TGI (K-562 leukemia): > 100 µM; TGI (CAKI-1 renal): > 100 µM; TGI (NCI-H460 lung): > 100 µM; TGI (UO-31 renal): > 100 µM; TGI (KM20L2 colon): > 100 µM; TGI (NCI-H522 lung): 86 µM; TGI (HCT-15 colon): > 100 µM; TGI (NCI-H23 lung): > 100 µM; TGI (ACHN renal): > 100 µM; TGI (U251 CNS): > 100 µM; GI50 (RXF 393 renal): 60.1 µM; TGI (RXF 393 renal): > 100 µM; GI50 (RXF-631 renal): > 100 µM; TGI (RXF-631 renal): > 100 µM; TGI (SK-OV-3 ovarian): > 100 µM; GI50 (HL-60(TB) leukemia): > 100 µM; TGI (HL-60(TB) leukemia): > 100 µM; TGI (UACC-62 melanoma): > 100 µM; TGI (OVCAR-3 ovarian): > 100 µM; TGI (HCT-116 colon): > 100 µM; TGI (SF-268 CNS): > 100 µM; TGI (OVCAR-8 ovarian): > 100 µM; TGI (MALME-3M melanoma): > 100 µM; TGI (SNB-75 CNS): > 100 µM; TGI (HT29 colon): > 100 µM; TGI (OVCAR-5 ovarian): > 100 µM; TGI (A549 NSCLC): > 100 µM; TGI (IGROV1 ovarian): > 100 µM; TGI (TK-10 renal): > 100 µM; TGI (SNB-19 CNS): > 100 µM; TGI (M14 melanoma): > 100 µM; TGI (KM12 colon): > 100 µM; TGI (SW-620 colon): > 100 µM; GI50 (NCI-H226 lung): > 100 µM; TGI (NCI-H226 lung): > 100 µM; GI50 (OVCAR-4 ovarian): 67.8 µM; TGI (OVCAR-4 ovarian): > 100 µM; TGI (SK-MEL-5 melanoma): > 100 µM; GI50 (HOP-92 NSCLC): > 100 µM; TGI (HOP-92 NSCLC): > 100 µM; TGI (CCRF-CEM leukemia): > 100 µM; TGI (SF-539 CNS): > 100 µM; TGI (SF-295 CNS): > 100 µM; TGI (EKVX NSCLC): > 100 µM; TGI (RPMI-8226 leukemia): > 100 µM; TGI (HCC-2998 colon): > 100 µM; TGI (SK-MEL-28 melanoma): > 100 µM
